Laboratory results from patent publication US20100048597A1 (Novartis AG, priority 2006, published 2010).

Legend:
Type in all cases: biochemical
CDK9/cyclinT1 = molecular target: T1, CDK9/cyclinT1 (Homo sapiens, UniProt P50750); assay: CDK9/cyclinT1 kinase assay, IMAP fluorescence polarization
T1 construct: purchased Millipore
Procedure: (§1) Kinase assays were performed on recombinant purified enzymes using the non-radioactive IMAP fluorescence polarization assay format.
(§2) Compound stocks were prepared and diluted in DMSO and were added to kinase reactions at a 1/100 dilution for a final concentration of 1% DMSO. The components were added together to final concentrations listed in the tables below and incubated for two hours at room temperature.
(§3) The reactions were stopped by addition of stop solution.
CDK9/CDK1/CDK7: final stop concentration is 1× Developer buffer (85% A/15% B), IMAP beads 1/400
(§4) The samples were allowed to incubate for one more hour at room temperature and then the fluorescence polarization was measured. The plate normalized millipolarization (mP) values were plotted against the log of compound concentration for each compound and IC50 values were calculated using the spotfire IC50 calculator and confirmed by visual analysis.

CDK1/cyclinB = molecular target: T2, CDK1/cyclinB (Homo sapiens, UniProt P06493); assay: CDK1/cyclinB kinase assay, IMAP fluorescence polarization; conditions: read-out: CDK1 IC50
T2 construct: purchased Millipore
Procedure: as §1, §2, §3
The samples were allowed to incubate for one more hour at room temperature and then the fluorescence polarization was measured.

CDK2/cyclinA = molecular target: T3, CDK2/cyclinA (Homo sapiens, UniProt P24941); assay: CDK2/cyclinA kinase assay, IMAP fluorescence polarization
T3 construct: purchased Millipore
Procedure: as §1, §2, §3
CDK2: final stop concentration is 1× Developer buffer (100% A), IMAP beads 1/400
as §4

T2 sequence (P06493 whole entry): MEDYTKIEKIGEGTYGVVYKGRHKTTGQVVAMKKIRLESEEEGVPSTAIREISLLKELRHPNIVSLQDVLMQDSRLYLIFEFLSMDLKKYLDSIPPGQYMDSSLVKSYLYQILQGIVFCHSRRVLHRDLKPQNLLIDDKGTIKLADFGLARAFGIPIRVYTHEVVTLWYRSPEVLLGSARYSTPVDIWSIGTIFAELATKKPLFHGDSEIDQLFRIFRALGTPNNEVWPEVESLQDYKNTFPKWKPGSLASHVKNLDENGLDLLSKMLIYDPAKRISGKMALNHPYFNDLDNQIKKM
T2 sequence (P14635 whole entry partner): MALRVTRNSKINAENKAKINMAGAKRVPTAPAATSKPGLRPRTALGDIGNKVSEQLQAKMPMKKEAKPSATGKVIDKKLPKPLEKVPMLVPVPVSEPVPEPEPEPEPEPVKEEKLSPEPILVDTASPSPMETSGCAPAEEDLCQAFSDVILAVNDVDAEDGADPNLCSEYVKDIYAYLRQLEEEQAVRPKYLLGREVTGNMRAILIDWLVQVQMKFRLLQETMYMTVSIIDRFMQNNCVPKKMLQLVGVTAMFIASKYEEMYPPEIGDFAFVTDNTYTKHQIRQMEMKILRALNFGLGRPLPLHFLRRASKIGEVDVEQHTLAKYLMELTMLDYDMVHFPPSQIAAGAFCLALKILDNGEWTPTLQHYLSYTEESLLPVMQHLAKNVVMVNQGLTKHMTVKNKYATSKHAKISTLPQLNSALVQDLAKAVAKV
T1 sequence (P50750 whole entry): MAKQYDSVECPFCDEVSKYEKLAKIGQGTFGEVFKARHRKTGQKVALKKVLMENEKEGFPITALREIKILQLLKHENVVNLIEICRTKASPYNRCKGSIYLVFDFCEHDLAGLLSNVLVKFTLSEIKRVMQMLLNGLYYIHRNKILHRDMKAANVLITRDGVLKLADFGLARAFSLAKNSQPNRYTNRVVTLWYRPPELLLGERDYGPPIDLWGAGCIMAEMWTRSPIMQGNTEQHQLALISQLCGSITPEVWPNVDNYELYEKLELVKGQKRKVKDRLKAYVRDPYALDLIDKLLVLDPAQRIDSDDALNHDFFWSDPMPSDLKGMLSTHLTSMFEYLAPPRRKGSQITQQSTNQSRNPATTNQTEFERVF
T1 sequence (O60563 whole entry partner): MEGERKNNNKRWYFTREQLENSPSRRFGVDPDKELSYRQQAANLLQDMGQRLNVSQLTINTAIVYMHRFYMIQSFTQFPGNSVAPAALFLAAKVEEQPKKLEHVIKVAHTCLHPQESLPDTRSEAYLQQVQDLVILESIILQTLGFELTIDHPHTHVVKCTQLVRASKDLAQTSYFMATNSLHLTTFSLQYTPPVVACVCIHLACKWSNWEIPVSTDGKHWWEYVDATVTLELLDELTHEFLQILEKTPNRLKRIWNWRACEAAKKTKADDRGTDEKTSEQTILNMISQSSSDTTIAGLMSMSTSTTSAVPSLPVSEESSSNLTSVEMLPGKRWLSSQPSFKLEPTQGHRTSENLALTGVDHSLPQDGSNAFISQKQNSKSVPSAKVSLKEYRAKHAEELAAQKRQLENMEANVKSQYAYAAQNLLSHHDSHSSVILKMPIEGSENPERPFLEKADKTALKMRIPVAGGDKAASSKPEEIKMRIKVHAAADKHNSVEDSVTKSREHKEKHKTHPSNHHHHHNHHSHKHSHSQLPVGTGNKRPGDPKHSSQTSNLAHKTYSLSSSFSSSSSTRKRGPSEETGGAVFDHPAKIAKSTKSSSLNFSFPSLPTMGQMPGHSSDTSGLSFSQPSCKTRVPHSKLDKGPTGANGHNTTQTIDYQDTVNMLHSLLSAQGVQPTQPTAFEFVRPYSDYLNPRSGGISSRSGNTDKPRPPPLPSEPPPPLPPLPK

SMILES | IC50 (CDK9/cyclinT1) [µM] | IC50 (CDK1/cyclinB) [µM] | IC50 (CDK2/cyclinA) [µM]
Nc1cnccc1-c1ccnc(Nc2cccc(Cl)c2)n1 [Compound 1, [4-(3-Amino-pyridin-4-yl)-pyrimidin-2-yl]-(3-chloro-phenyl)-amine] | < 5 | < 5 | < 5
COCCCNc1nccc(-c2ccnc(Nc3cccc(Cl)c3)n2)c1C [Compound 18, (3-Chloro-phenyl)-{4-[2-(3-methoxy-propylamino)-3-methyl-pyridin-4-yl]-pyrimidin-2-yl}-amine] | < 5 | < 5 | < 5
Clc1cccc(Nc2nccc(-c3cccnc3NCC3CCCCC3)n2)c1 [Compound 50, (3-Chloro-phenyl)-{4-[2-(cyclohexylmethyl-amino)-pyridin-3-yl]-pyrimidin-2-yl}-amine] | > 50 | > 50 | > 50
CN(C)CCNc1ncccc1-c1ccnc(Nc2cccc(Cl)c2)n1 [Compound 53, N-{3-[2-(3-Chloro-phenylamino)-pyrimidin-4-yl]-pyridin-2-yl}-N′,N′-dimethyl-ethane-1,2-diamine] | < 5 | 15 to 50 | 5 to 15
CC(=O)NCCNc1ncccc1-c1ccnc(Nc2cccc(Cl)c2)n1 [Compound 54, N-(2-{3-[2-(3-Chloro-phenylamino)-pyrimidin-4-yl]-pyridin-2-ylamino}-ethyl)-acetamide] | < 5 | < 5 | < 5
Cc1cnc(Nc2cccc(Cl)c2)nc1-c1cccnc1NCCCN [Compound 56, N-{3-[2-(3-Chloro-phenylamino)-5-methyl-pyrimidin-4-yl]-pyridin-2-yl}-propane-1,3-diamine] | < 5 | < 5 | < 5
CCCCNc1ncccc1-c1nc(Nc2cccc(Cl)c2)ncc1C [Compound 57, [4-(2-Butylamino-pyridin-3-yl)-5-methyl-pyrimidin-2-yl]-(3-chloro-phenyl)-amine] | < 5 | > 50 | > 50
CNCCCNc1ncccc1-c1ccnc(Nc2cccc(Cl)c2)n1 [Compound 62, N-{3-[2-(3-Chloro-phenylamino)-pyrimidin-4-yl]-pyridin-2-yl}-N′-methyl-propane-1,3-diamine] | < 5 | 5 to 15 | 5 to 15
CC(=O)NCCCNc1ncccc1-c1nc(Nc2cccc(Cl)c2)ncc1C [Compound 66, N-(3-{3-[2-(3-Chloro-phenylamino)-5-methyl-pyrimidin-4-yl]-pyridin-2-ylamino}-propyl)-acetamide] | < 5 | > 50 | 15 to 50
CC(C)(C)C(=O)NCCCNc1ncccc1-c1ccnc(Nc2cccc(Cl)c2)n1 [Compound 70, N-(3-{3-[2-(3-Chloro-phenylamino)-pyrimidin-4-yl]-pyridin-2-ylamino}-propyl)-2,2-dimethyl-propionamide] | < 5 | 5 to 15 | 5 to 15
CC(C)(C)CC(=O)NCCCNc1ncccc1-c1ccnc(Nc2cccc(Cl)c2)n1 [Compound 71, N-(3-{3-[2-(3-Chloro-phenylamino)-pyrimidin-4-yl]-pyridin-2-ylamino}-propyl)-3,3-dimethyl-butyramide] | < 5 | 5 to 15 | > 50
CNc1nccc(-c2cccnc2OC)n1 [Compound 87, [4-(2-Methoxy-pyridin-3-yl)-pyrimidin-2-yl]-methyl-amine] | 15 to 50 | 15 to 50 | 
COc1ncccc1-c1ccnc(NC2CCCCC2)n1 [Compound 88, Cyclohexyl-[4-(2-methoxy-pyridin-3-yl)-pyrimidin-2-yl]-amine] | 5 to 15 | 15 to 50 | 
COc1ccc(-c2ccnc(Nc3cccc(Cl)c3)n2)c(OC)n1 [Compound 118, (3-Chloro-phenyl)-[4-(2,6-dimethoxy-pyridin-3-yl)-pyrimidin-2-yl]-amine] | 5 to 15 | > 50 | 
